Assay results taken from ChEMBL document CHEMBL5321216, “Discovery of bipyridine amide derivatives targeting pRXRα-PLK1 interaction for anticancer therapy” (Eur J Med Chem, 2023).
The source made the active and inactive calls. No cut-off for these calls is given here.

How the values were obtained:
MDA-MB-231 [1] = experiment: Antiproliferative activity against human MDA-MB-231 cells assessed as inhibition of cell proliferation incubated for 72 hrs by MTT assay; type: functional, cell-based; settings: MDA-MB-231, 72 h
A549 [2] = experiment: Antiproliferative activity against human A549 cells assessed as inhibition of cell proliferation incubated for 72 hrs by MTT assay; type: functional, cell-based; settings: A549, 72 h
[3] = Cytotoxicity against HK-2 cells assessed as inhibition of cell proliferation incubated for 72 hrs by MTT assay; type: toxicity, cell-based; settings: human
[4] = Selectivity index, ratio of IC50 for human HCC1937 cells to IC50 for human MDA-MB-231 cells; type: functional
[5] = Selectivity index, ratio of IC50 for human A549 cells to IC50 for human MDA-MB-231 cells; type: functional
[6] = Selectivity index, ratio of IC50 for human NCI-H460 cells to IC50 for human MDA-MB-231 cells; type: functional
[7] = Selectivity index, ratio of IC50 for human HepG2 cells to IC50 for human MDA-MB-231 cells; type: functional
A549 [8] = experiment: Induction of cell cycle arrest in RXRalpha knockout human A549 cells assessed as accumulation of cells at S phase at 125 nM incubated for 12 hrs by DAPI staining based flow cytometry analysis (reference value: 32.74%); type: functional
A549 [9] = experiment: Induction of cell cycle arrest in wild type human A549 cells assessed as accumulation of cells at G2 phase at 125 nM incubated for 12 hrs by DAPI staining based flow cytometry analysis (reference value: 21.99 %); type: functional
MDA-MB-231 [10] = experiment: Induction of apoptosis in human MDA-MB-231 cells assessed as reduction in Bcl-2 protein expression measured after 24 hrs by Western blot analysis; type: functional, cell-based; settings: dose 7.8-500 nM
MDA-MB-231 [11] = experiment: Induction of apoptosis in human MDA-MB-231 cells assessed as increase in cleaved PARP expression measured after 24 hrs by Western blot analysis; type: functional, cell-based; settings: dose 7.8-500 nM
A549 [12] = experiment: Induction of apoptosis in human A549 cells assessed as live cells at 250 nM incubated for 24 hrs by annexin V-FITC/PI staining based flow cytometry analysis (reference value: 93.2%); type: functional
[13] = target: T1, Retinoic acid receptor RXR-alpha (Homo sapiens, UniProt P19793); experiment: Binding affinity to RXRalpha LBD (unknown origin) assessed as dissociation constant by fluorescence quenching analysis
T1 sequence (P19793 whole entry): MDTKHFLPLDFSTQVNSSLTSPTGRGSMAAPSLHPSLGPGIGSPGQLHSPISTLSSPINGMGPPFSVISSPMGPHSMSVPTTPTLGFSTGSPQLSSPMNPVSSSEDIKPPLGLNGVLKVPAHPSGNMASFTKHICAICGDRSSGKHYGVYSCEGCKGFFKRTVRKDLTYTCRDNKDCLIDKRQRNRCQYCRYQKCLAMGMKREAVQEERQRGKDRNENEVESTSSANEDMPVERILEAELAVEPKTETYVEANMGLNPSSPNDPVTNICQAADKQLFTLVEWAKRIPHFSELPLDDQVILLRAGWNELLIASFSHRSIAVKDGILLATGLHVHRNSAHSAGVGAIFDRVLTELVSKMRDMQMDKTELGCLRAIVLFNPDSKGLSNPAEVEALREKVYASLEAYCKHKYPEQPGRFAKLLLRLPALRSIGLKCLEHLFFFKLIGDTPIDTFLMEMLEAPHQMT

A549 [14] = experiment: Induction of apoptosis in human A549 cells assessed as late apoptotic cells at 125 nM incubated for 24 hrs by annexin V-FITC/PI staining based flow cytometry analysis (reference value: 5.28%); type: functional
A549 [15] = experiment: Induction of apoptosis in human A549 cells assessed as late apoptotic cells at 62.5 nM incubated for 24 hrs by annexin V-FITC/PI staining based flow cytometry analysis (reference value: 5.28%); type: functional
[16] = target: T2, Retinoic acid receptor RXR-alpha (Homo sapiens) (UniProt P19793); experiment: Antagonist activity at RXRalpha (unknown origin) transfected in human HeLa cells at 31.25 uM incubated for 24 hrs by dual luciferase reporter assay; type: cell-based; settings: filed as antagonist
T2 sequence (whole entry): T1 sequence (P19793 whole entry)

MDA-MB-231 [17] = experiment: Induction of cell cycle arrest in human MDA-MB-231 cells assessed as accumulation of cells at G1 phase at 31.25 nM incubated for 12 hrs by flow cytometry analysis (reference value: 43.2%); type: functional
A549 [18] = experiment: Induction of cell cycle arrest in human A549 cells assessed as accumulation of cells at G2 phase at 62.5 nM incubated for 12 hrs by flow cytometry analysis (reference value: 8.62%); type: functional
MDA-MB-231 [19] = experiment: Induction of apoptosis in human MDA-MB-231 cells assessed as early apoptotic cells at 31.25 nM incubated for 24 hrs by annexin V-FITC/PI staining based flow cytometry analysis (reference value: 2.03%); type: functional
MDA-MB-231 [20] = experiment: Induction of apoptosis in human MDA-MB-231 cells assessed as dead cells at 31.25 nM incubated for 24 hrs by annexin V-FITC/PI staining based flow cytometry analysis (reference value: 0.69%); type: functional
MDA-MB-231 [21] = experiment: Induction of apoptosis in human MDA-MB-231 cells assessed as late apoptotic cells at 250 nM incubated for 24 hrs by annexin V-FITC/PI staining based flow cytometry analysis (reference value: 5.93%); type: functional
[22] = Drug absorption in KM mouse at 25 mg/kg, ip measured after 0.5 to 2 hrs; type: ADME, organism-based; settings: in vivo, time 0.5-2 hrs
[23] = Elimination half life in Sprague-Dawley rat at 25 mg/kg, ip measured for 48 hrs by LC-MS/MS analysis; type: ADME, organism-based; settings: in vivo, read-out: beta t1/2 (converted)
MDA-MB-231 [24] = experiment: Antitumor activity against human MDA-MB-231 cells xenografted in BALB/c nude mouse assessed as tumor growth inhibition at 25 mg/kg/day, ip administered for 15 days and measured once a day relative to control; type: functional; settings: MDA-MB-231, 360 h, time 15 day, read-out: TGI
MDA-MB-231 [25] = experiment: Antitumor activity against human MDA-MB-231 cells xenografted in BALB/c nude mouse assessed as reduction in tumor volume at 25 mg/kg/day, ip administered for 15 days and measured once a day; type: functional, organism-based; settings: time 15.0 day
MDA-MB-231 [26] = experiment: Antitumor activity against human MDA-MB-231 cells xenografted in BALB/c nude mouse assessed as reduction in Ki67 protein expression at 25 mg/kg/day, ip administered for 15 days by immunohistochemical analysis; type: functional, organism-based; settings: time 15.0 day
MDA-MB-231 [27] = experiment: Antitumor activity against human MDA-MB-231 cells xenografted in BALB/c nude mouse assessed as inhibition of tumor growth by measuring mitotic arrest at 12.5 to 25 mg/kg/day, ip administered for 15 days; type: functional, organism-based; settings: dose 12.5-25 mg/kg/day, time 15.0 day
[28] = Toxicity in BALB/c mouse xenografted with human MDA-MB-231 cells assessed as lung damage at 25 mg/kg/day, ip administered for 15 days by H and E staining based analysis; type: organism-based; settings: in vivo, 360 h, time 15 day
MDA-MB-231 [29] = experiment: Effect on Nur77 protein expression in human MDA-MB-231 cells at 7.8 to 500 nM measured after 24 hrs by Western blot analysis; type: functional, cell-based; settings: dose 7.8-500 nM
MDA-MB-231 [30] = experiment: Induction of mitotic arrest in human MDA-MB-231 cells assessed as chromosome misalignment at 62.5 nM incubated for 12 hrs by alpha-tubulin/DAPI staining based confocal microscopic analysis; type: functional, cell-based

With `O=C(/C=C/c1ccccc1)Nc1cc(-c2ccnc(N3CCC(CO)CC3)c2)ccn1` the IC50 (MDA-MB-231 [1]) was 16 nM, the IC50 (A549 [2]) was 201 nM and the IC50 at 72 h [3] was 372 nM. For the same compound, the “Ratio IC50” value [4] was 35.06, the “Ratio IC50” value [5] was 12.56 and the “Ratio IC50” value [6] was 15.81. The “Ratio IC50” value [7] was 4.81, the Activity (A549 [8]) was 36.18% and the Activity (A549 [9]) was 79.66%. For the same compound, the Activity (MDA-MB-231 [10]) was “Dose-Dependent Effect”, the Activity (MDA-MB-231 [11]) was “Dose-Dependent Effect” and the Activity (A549 [12]) was 44.9%. The Kd [13] was 147 nM, the Activity (A549 [14]) was 22.8% and the Activity (A549 [15]) was 18.2%. The Activity [16] was “Active”, the Activity (MDA-MB-231 [17]) was 42.63% and the Activity (A549 [18]) was 12.89%. It also gave an Activity (MDA-MB-231 [19]) of 2.24%, an Activity (MDA-MB-231 [20]) of 0.93% and an Activity (MDA-MB-231 [21]) of 20.2%. For the same compound, the Drug absorption [22] was “Active”, the half-life [23] was 2.23 h and the inhibition in vivo at 25 mg/kg/day (MDA-MB-231 [24]) was 59.3%. For the same compound, the Activity (MDA-MB-231 [25]) was “Active”, the Activity (MDA-MB-231 [26]) was “Active” and the Activity (MDA-MB-231 [27]) was “Active”. The Activity [28] was “Non-Toxic”, the Activity (MDA-MB-231 [29]) was “inactive” and the Activity (MDA-MB-231 [30]) was “Active”.
